Laboratory results reported in US7205383B2, “Peptide ligands of leukocyte integrins” (Karyon-CTT Ltd., priority 2001, dated 2007).
Ends that are not written are not given here.

How the values were obtained:
[1] = tested on: L929, K562, SKOV-3, KS6717 and Eahy96 cells; assay: Adhesion of non-leukocytic cell lines to immobilized peptide or fusion protein; type: cell-based; details: cells pretreated with phorbol ester or not; data not shown
Procedure: (§1) Fibrinogen, fibronectin, von Wrlnebrand factor, type IV collagen, GST fusion proteins, Fc fusion proteins or synthetic peptides were coated on microtiter wells at a concentration of 2 μg in 50 μl TBS unless otherwise indicated. A recombinant von Willebrand factor and a capturing antibody to it kindly provided by Drs. J. J. Sixma and Ph. G. de Groot (University Medical Center Utrecht, the Netherlands) were also used. To prepare polymerized peptides, glutaraldehyde was added at a final concentration of 0.25%. The wells were saturated with 5% BSA and then washed five times with PBS. Prior to adhesion assays, cells were treated with 50 nM 40-Phorbol 12,13-dibutyrate or with 200 μM P1 peptide (Kotovuori et al., 1999) in serum-free medium for 30 min at room temperature to activate the integrins. Alternatively, cells were stimulated for 60 min at 37° C. with the phorbol ester (50 nM) and the C(1–8;3–9) and RGD-4C peptides each at a 2.5 μM concentration, after which the peptides were removed by washing with PBS/2.5 mM EDTA. Cells were incubated in the microtiter wells (100 000 cells per well) for 60 min at 37° C. in the absence or presence of competing peptides, antibodies or EDTA. […] The bound cells were determined by an assay measuring cellular phosphatase activity. […] The absorbance at 405 nm was read on a microplate reader. […]

[2] = tested on: αXβ2 integrin-transfected L cells; assay: Adhesion of αXβ2 integrin-transfected L cells to LLG-C4-GST; type: cell-based, mouse
Procedure: as §1

[3] = molecular target: T1, αM subunit I-domain (Homo sapiens, UniProt P11215); assay: I-domain binding assay; details: for binding to isolated I-domain of the αM subunit: 0.01–100 μg/ml, 60 min; for inhibition of LLG-C4-GST binding to the I-domain: LLG-C4-GST 10 μg/ml, peptides 100 μM, EDTA 2.5 mM
T1 construct: GST (cleaved yes); made in house; host or cells: E. coli
Procedure: In FIG. 1(B), LLG-C4-GST or GST was incubated for 60 min in microtiter wells coated with purified αM subunit I-domain. The concentrations of GST proteins were as indicated. After washing, the bound GST was determined with anti-GST antibodies. The results are means ±SD from triplicate wells. The results were similar in two other experiments.
After a 60 min incubation, the wells were washed and the binding was determined with anti-GST antibodies. The results are the means ±SD from triplicate wells.
(§2) Integrin was immunocaptured on microtiter wells that were coated with the αM subunit antibodies OKM1 or MEM170, the αx subunit antibody TS2/4 or non-specific IgG (Dako, Carpinteria, Calif.). The antibodies were coated at a concentration of 10 μg/ml in TBS overnight at 4° C. After saturation of the wells with 5% BSA, a 200 μl aliquot of the buffy coat lysate in 1% octylglucoside/1 mM MnCl2/TBS was allowed to incubate for 2 h at 4° C. The wells were then washed five times with the octylglucoside-containing buffer. LLG-C4-GST or control GST was incubated at a concentration of 10 μg/ml in 25 mM octylglucoside TBS/1 mM MnCl2 for an hour. Following washing of the wells, the bound GST was determined with anti-GST antibodies (Amersham Pharmacia), which were labeled with an Eu^3+-chelate according to the instructions of the manufacturer (Wallac, Turku, Finland). The Eu^3+-fluorescence was measured with a 1230 Arcus fluorometer (Wallac). For examination of the I-domain binding, we used the recombinant αM I-domain expressed as a GST fusion protein in E. coli as described (Ueda et al., 1994). […] The I-domain was coated on microtiter wells at a concentration of 20 μg/ml, and the binding of LLG-C4-GST and GST was studied.

[4] = tested on: THP-1 cells; assay: Transwell cell migration assay, LLG-C4-GST-coated filters; type: cell-based; details: 10% serum, 18 h
Procedure: The in vitro migration of THP-1 cells was studied in closely physiological conditions containing 10% serum to not interfere with adhesive properties of cells. Both the upper and lower surfaces of 8 μm pore size Transwell filters were coated with fibrinogen, LLG-C4-GST, or GST at a concentration of 40 μg/ml overnight at 4° C. Free binding sites were blocked by incubation with 5% BSA/TBS. THP-1 cells (5×10^4 in 100 μl) were plated on the upper compartment in 10% FCS-containing medium. The C(1–8;3–9) or C(1–9;3–8) peptide were included at a concentration of 200 μM. The lower compartment was filled with 750 μl of 10% FCS-containing medium. Following a culture for 18 h at 37° C. the filters were immersed in methanol for 15 min, in water for 10 s, and in 0.1% toluidine blue for 5 min. The filters were then washed 3–5 times with water until cell staining was clear. Cells were removed from the upper surface of the filter with a cotton swap, and cells migrated on the lower surface were counted microscopically. Student's t-test was used for statistical analysis.

[5] = tested on: THP-1 cells (β2 integrins); details: for competition of THP-1 cell adhesion on LLG-C4-GST substratum: soluble pentapeptides, CLLGC at concentrations of 1 mM or higher
Procedure: In FIG. 2(A), phorbol ester-activated THP-1 cells were allowed to bind for 60 min to microtiter wells coated with LLG-C4-GST, GST, or albumin. EDTA was included at a 2.5 mM concentration. The bound cells were determined by the assay measuring cellular phosphatase activity. The data are the means ±SD from triplicate wells.
In FIG. 2(B), THP-1 cells were mixed with each antibody against the β1, β2, β3, αL, αM, or αX integrin subunit as indicated at a concentration of […]. An aliquot of cells was then transferred to wells coated with LLG-C4-GST and incubated for 60 min at 37° C. Following washing the bound cells were determined by the phosphatase assay. The results are the mean % adhesion ±SD of 2–4 independent experiments each done in triplicate wells.
In FIG. 3(A), TBP-1 cells were mixed in suspension with the peptide containing either the C(1–8;3–9) or C(1–9;3–8) disulfide. The final concentrations of the peptides are indicated. Cells were then incubated for 60 min at 37° C. in microtiter wells coated with LLG-C4-GST. After washing the wells, the bound cells were quantitated by the phosphatase assay. The results are the mean ±SD from triplicate wells.
In FIG. 3(B), THP-1 cell binding to LLG-C4-GST was examined in the presence of the C(1–8;3–9), CLLGC (SEQ ID NO: 4) or the CAAGC (SEQ ID NO: 5) peptide. The synthetic peptides were used at the concentrations indicated. Following a 60 min incubation the wells were washed and the bound cells were determined by the phosphatase assay.
Fibrinogen, fibronectin, von Wrlnebrand factor, type IV collagen, GST fusion proteins, Fc fusion proteins or synthetic peptides were coated on microtiter wells at a concentration of 2 μg in 50 μl TBS unless otherwise indicated. A recombinant von Willebrand factor and a capturing antibody to it kindly provided by Drs. J. J. Sixma and Ph. G. de Groot (University Medical Center Utrecht, the Netherlands) were also used. To prepare polymerized peptides, glutaraldehyde was added at a final concentration of 0.25%. The wells were saturated with 5% BSA and then washed five times with PBS. Prior to adhesion assays, cells were treated with 50 nM 40-Phorbol 12,13-dibutyrate or with 200 μM P1 peptide (Kotovuori et al., 1999) in serum-free medium for 30 min at room temperature to activate the integrins. Alternatively, cells were stimulated for 60 min at 37° C. with the phorbol ester (50 nM) and the C(1–8;3–9) and RGD-4C peptides each at a 2.5 μM concentration, after which the peptides were removed by washing with PBS/2.5 mM EDTA. Cells were incubated in the microtiter wells (100 000 cells per well) for 60 min at 37° C. in the absence or presence of competing peptides, antibodies or EDTA. Unbound cells were removed by gently washing with PBS and pressing the plate against paper towels. The bound cells were determined by an assay measuring cellular phosphatase activity. Briefly, 100 μl of 50 mM sodium acetate buffer, pH 5.0, containing 1% Triton X-100 and 6 mg/ml p-nitrophenyl phosphate was added per well and incubated for 1 h at 37° C. The reaction was stopped with 50 μl of 1 M NaOH. The absorbance at 405 nm was read on a microplate reader. Alternatively, the attached cells were stained with Crystal Violet essentially as described (Mould et al., 1995).

[6] = molecular target: T2, αMβ2 integrin (Homo sapiens, UniProt P11215); assay: Integrin binding assay, immunocaptured integrin (MEM170 or OKM1); details: for binding of GST protein to immunocaptured αMβ2 integrin: 10 μg/ml, 1 mM MnCl2, integrin captured with MEM170 or OKM1, anti-GST detection
T2 construct: integrin from a blood cell lysate was immunocaptured on microtiter wells; from tissue; host or cells: blood buffy coat lysate in octylglucoside
Procedure: Purified LLG-C4-GST or GST control (2 μg/well) was allowed to bind for 60 min in the absence or presence of EDTA. After washing, the bound GST protein was determined by using anti-GST antibodies. […] The experiment was repeated three times with similar results.
as §2

[7] = molecular target: T3, αMβ2 integrin (Mac-1) (Homo sapiens, UniProt P11215); assay: Phage display biopanning on purified integrin; type: binding; details: phage bound to αMβ2 integrin, CX7C and CX9C libraries, randomly selected clones
T3 construct: from tissue; host or cells: blood buffy coats (leukocytes)
Procedure: The αMβ2 integrin was purified by antibody affinity chromatography from buffy coats obtained from Finnish Red Cross Blood Transfusion Service as described previously (Li et al., 1995). Integrin diluted in Tris-buffered saline (TBS)/1 mM MnCl2 was coated onto microtiter wells overnight at 4° C. using one μg per well in the first biopanning and 100, 10 and 1 ng in subsequent pannings. The wells were blocked with 5% BSA in TBS for 1 h at 22° C. and then washed five times with TBS. Biopanning was performed using CX7C and CX9C phage peptide libraries essentially as described (Koivunen et al., 1994). The construction of libraries was modified so that the single-stranded DNA encoding degenerate sequences was converted into a double-stranded form using 5 cycles of PCR with only the reverse primer and then 11 cycles with both the reverse and forward primer. A total of 6 μg of the double-stranded oligonucleotide was purified using QIAGEN PCR purification kit and ligated with 42 μg of the Fuse5 phage vector. The number of recombinants in the libraries was more than 10^9. Phage binding, elution and subsequent amplification in E. coli were repeated five times, and after each panning bacterial colonies were picked up and stored in a 10 μl volume of TBS in microtiter wells at −20° C. For direct colony sequencing, one μl aliquots of the thawed samples were subjected to PCR with 10 pmol each of the forward primer 5′ […] 3′ (SEQ ID NO: 9) and the reverse primer 5′ […] 3′ (SEQ ID NO: 10). The PCR conditions were 92° C. for 30 s, 60° C. for 30 s, and 72° C. for 60 s, and the cycle number was 35. One μl aliquot of the PCR reaction was taken for sequencing using 15 pmol of either one of the primers and analyzed on an ABI 310 apparatus (PE Applied Biosystems, Foster City, Calif.).
After the fifh round of selection, the CX7C library gave a 600-fold enrichment and CX9C a 1000-fold enrichment of phage bound to the integrin in comparison to background. […] Four of them contained the LLG tripeptide motif. The two sequences most strongly enriched were CPCFLLGCC (SEQ ID NO: 3) (LLG-C4) and […] (SEQ ID NO: 11), each observed 15 times in the randomly selected clones, and these were the only clones remaining after searching for high affinity binders by using low integrin coating concentrations.

[8] = tested on: THP-1 cells on von Willebrand factor; type: cell-based; details: 500 μM; data not shown
Procedure: In FIG. 5(A), THP-1 cell binding to von Wirebrand factor was examined in the presence of antibodies against the β2 (7E4), αvβ3 (LM609) or αIIbβ3 (P2) integrins. Following a 60 min incubation in von Willebrand factor-coated wells, the bound cells were determined. The data are the mean ±SD of triplicate wells. The experiment was repeated three times.
In FIG. 5(B), TRP-1 cells were allowed to bind to microtiter wells coated with von Willebrand factor, type IV collagen, or fibronectin. The C(1–8;3–9) peptide was included as a competitor in the concentrations described. The bound cells were determined by the phosphatase assay. The data are the mean ±SD of triplicate wells and were similar in four other experiments.
as §1

## LLG-C4-GST: LLG-C4 nonapeptide expressed as GST fusion protein in E. coli (CPCFLLGCC-{GST}; cysteine pairing not given here)
[1]
  binding of non-leukocytic cell lines not expressing β2 integrins: showed no binding
[2]; p=0.016
  difference in binding of αXβ2-transfected L cells to LLG-C4-GST vs. GST: statistically significant
[3]
  binding to isolated I-domain of the αM subunit: concentration-dependent binding
[4]
  cell migration on LLG-C4-GST compared with other coatings: more efficient than on fibronectin or fibrinogen coatings
[4]; filter coated at 40 μg/ml
  fold more cells migrated on LLG-C4-GST substratum than on control GST substratum: Approximately 10 fold
[5]; protein coated on microtiter wells, 60 min
  binding of phorbol ester-activated THP-1 cells to coated protein: efficiently bound
[6]
  binding of GST protein to immunocaptured αMβ2 integrin: bound to the αMβ2 integrin in a divalent cation-sensitive manner

## CPPDLFWYC (Phage sequence bound to the alphaMbeta2 integrin (Mac-1))
[7]
  number of isolated nucleotide sequences encoding each peptide: (4)

## CWKLLGSEEEC (Stronly enriched sequence)
[7]
  number of isolated nucleotide sequences encoding each peptide: (15)
[7]; listed as CWKLGSEEEC
  number of isolated nucleotide sequences encoding each peptide: 15

## CAAGC (Synthetic peptide seen in Fig. 3B) [reference compound]
[5]
  competition of THP-1 cell adhesion on LLG-C4-GST substratum: weak competitor of cell adhesion
[8]
  inhibition of THP-1 binding to von Willebrand factor at 500 μM: not

## O=C(O)CN(CCN(CC(=O)O)CC(=O)O)CC(=O)O [EDTA, reference compound]
[2]; competitor
  inhibition of binding of αXβ2-transfected L cells to LLG-C4-GST: inhibited
[3]
  inhibition of LLG-C4-GST binding to the I-domain: blocked the binding
[5]; EDTA 2.5 mM
  effect of EDTA on THP-1 binding on LLG-C4-GST: completely abolished the binding
[6]; EDTA present
  inhibition of LLG-C4-GST binding to immunocaptured αMβ2 integrin: inhibited the binding of LLG-C4-GST to the integrin

## CLLGC (Synthetic peptide seen in Fig. 3B)
[5]
  competition of THP-1 cell adhesion on LLG-C4-GST substratum: readily inhibited cell adhesion
[8]
  inhibition of THP-1 binding to von Willebrand factor at 500 μM: inhibited

## CWHKDLLGC (Phage sequence bound to the alphaMbeta2 integrin (Mac-1))
[7]
  number of isolated nucleotide sequences encoding each peptide: (4)

## CPEDLYFFC (Phage sequence bound to the alphaMbeta2 integrin (Mac-1))
[7]
  number of isolated nucleotide sequences encoding each peptide: (3)

## LLG-C4 (1): air-oxidised synthetic biscyclic LLG-C4 preparation, highly active (CPCFLLGCC; disulfide (positions not given here))
[3]
  inhibition of LLG-C4-GST binding to the I-domain: blocked the ability of the I-domain to bind the LLG-C4-GST

## LLG-C4 (2): synthetic LLG-C4 preparation, inactive apparently due to disadvantageous disulfide bonding (CPCFLLGCC; disulfide (positions not given here); not fully specified)
[3]
  inhibition of LLG-C4-GST binding to the I-domain: did not inhibit LLG-C4-GST binding to the I-domain

## GST: control GST protein
[3]
  binding to isolated I-domain of the αM subunit: did not bind
[6]
  binding of GST protein to immunocaptured αMβ2 integrin: not GST alone
